{"source": "patent US20050026833A1", "about": "“PSP-94: use for treatment of hypercalcemia and bone metastasis” (priority 2001, published 2005)", "system": "Mat Ly Lu-PTHrP skeletal metastasis", "experiment": "Bone histomorphometry of vertebrae (tumor volume to bone volume)", "type": "in vivo, male Copenhagen rats", "procedure": "Alternatively, cell pellets (10×10^3 cells) were resuspended in 100ul saline and injected using 1 ml syringes into the left ventricle of rats anaesthetised with ketamine/xylazine cocktail. […] The time after tumor cell inoculation which was required to develop hind limb paralysis (an index of spinal cord compression due to lumbar vertebrae metastasis) was determined and percentage of starting number of animals developing hind-limb paralysis was plotted. […]\nComputer-Assisted Image Analysis. Computer-assisted image analysis was carried out to quantify PTHrP immunostaining and determination of % TV/BV in the vertebral sections. […] The threshold was set by determining the positive staining of control sections and was used to automatically analyze all recorded images of all samples that were stained in the same session under identical conditions. The area of stained regions was calculated automatically by the software in each microscopic field. Pixel counts of the immunoreaction product were calculated automatically and were given as total density of the integrated immunostaining over a given area. […]", "data": [{"substance": "E W Q T D N C E T C T C Y E T (EWQTDNCETCTCYET; PCK3145 (polypeptide 31-45))", "values": [{"measurement": "ratio of tumor volume to bone volume (TV/BV)", "setting": "100.0 ug/kg PCK3145, day 10 post inoculation, vs vehicle", "value": "significant decrease"}, {"measurement": "trabecular and cortical bone destruction with compression of the spinal cord", "setting": "100.0 ug/kg/day PCK3145, day 10, vs vehicle", "value": "significantly less"}]}]}
